Reference: publication PMC7580763, “Novel insights on saccharin- and acesulfame-based carbonic anhydrase inhibitors: design, synthesis, modelling investigations and biological activity evaluation” (Journal of Enzyme Inhibition and Medicinal Chemistry, 2020)
Several values for one entry are separate records, joined by “and”; a condition that tells them apart may be missing. Equal entries are not always repeated. Where two headings read alike, the source gives them in different places.

Experiments:
Format in all cases: biochemical
hCA XII = hCA XII (Homo sapiens, UniProt O43570); assay: CA inhibition, stopped-flow CO2 hydrase assay, hCA XII
Protocol: (§1) An Applied Photophysics stopped-flow instrument has been used for assaying the CA-catalyzed CO2 hydration activity. […] The initial rates of the CA-catalysed CO2 hydration reaction were followed for a period of 10−100 s. The CO2 concentrations ranged from 1.7 to 17 mM for the determination of the kinetic parameters and inhibition constants. […] The uncatalyzed rates were determined in the same manner and subtracted from the total observed ones. Stock solutions of each inhibitor (0.1 mM) were prepared in distilled − deionized water and dilutions up to 0.01 nM were done thereafter with distilled − deionized water. Inhibitor and enzyme solutions were preincubated together for 15 min at room temperature prior to assay to allow for the formation of the E−I complex. The inhibition constants were obtained by nonlinear least-squares methods using the Cheng-Prusoff equation and represent the mean from at least three different determinations. […] Human CA isoforms were recombinant enzymes obtained in-house as reported earlier.

hCA I = hCA I (Homo sapiens, UniProt P00915); assay: CA inhibition, stopped-flow CO2 hydrase assay, hCA I
Protocol: as §1

hCA IX = hCA IX (Homo sapiens, UniProt Q16790); assay: CA inhibition, stopped-flow CO2 hydrase assay, hCA IX
Protocol: as §1

hCA II = hCA II (Homo sapiens, UniProt P00918); assay: CA inhibition, stopped-flow CO2 hydrase assay, hCA II
Protocol: as §1

[1] = Table 1, saccharin-based derivatives, recombinant enzyme, 15 min preincubation, pH 7.5
[2] = Table 2, acesulfame-based derivatives, mean from 3 different assays, errors ± 5–10%

Sequence of hCA XII (O43570 25-354): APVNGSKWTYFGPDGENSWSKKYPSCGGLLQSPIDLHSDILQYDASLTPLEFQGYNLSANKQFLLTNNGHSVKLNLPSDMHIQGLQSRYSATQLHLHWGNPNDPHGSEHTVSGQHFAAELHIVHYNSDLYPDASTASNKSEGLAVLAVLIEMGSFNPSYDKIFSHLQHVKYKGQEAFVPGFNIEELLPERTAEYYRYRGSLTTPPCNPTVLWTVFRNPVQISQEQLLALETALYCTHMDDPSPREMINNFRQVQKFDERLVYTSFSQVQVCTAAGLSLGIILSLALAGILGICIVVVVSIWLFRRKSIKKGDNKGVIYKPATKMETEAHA
Sequence of hCA I (P00915 whole entry): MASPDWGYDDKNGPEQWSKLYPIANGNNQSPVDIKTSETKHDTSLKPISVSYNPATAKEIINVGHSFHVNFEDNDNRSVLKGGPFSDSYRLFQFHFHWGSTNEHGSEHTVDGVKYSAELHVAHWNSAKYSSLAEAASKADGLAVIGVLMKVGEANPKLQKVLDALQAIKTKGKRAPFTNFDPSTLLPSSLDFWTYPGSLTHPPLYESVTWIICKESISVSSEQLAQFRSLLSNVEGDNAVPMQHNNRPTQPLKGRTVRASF

SMILES | Ki (hCA XII; [1]) | Ki (hCA I; [1]) | Ki (hCA IX; [1]) | Ki (hCA II; [1]) | Ki (hCA XII; [2]) | Ki (hCA I; [2]) | Ki (hCA IX; [2]) | Ki (hCA II; [2]) | also measured
O=C(O)c1ccccc1S(=O)(=O)NCc1cn(-c2ccccc2)nn1 [Compound 47] | > 1000 µM | > 1000 µM | 927 µM | > 1000 µM | – | – | – | – | inhibitory activity against hCA XII, in words (hCA XII): ineffective; inhibitory activity against hCA I, in words (hCA I): ineffective; inhibitory activity against hCA IX, in words (hCA IX): ineffective; inhibitory activity against hCA II, in words (hCA II): ineffective
Cc1ccc(-n2cc(CNS(=O)(=O)c3ccccc3C(=O)O)nn2)cc1 [Compound 48] | > 1000 µM | > 1000 µM | > 1000 µM | > 1000 µM | – | – | – | – | inhibitory activity against hCA XII, in words (hCA XII): ineffective; inhibitory activity against hCA I, in words (hCA I): ineffective; inhibitory activity against hCA IX, in words (hCA IX): ineffective; inhibitory activity against hCA II, in words (hCA II): ineffective
O=C(O)c1ccccc1S(=O)(=O)NCc1cn(Cc2ccccc2)nn1 [Compound 49] | 4.5 µM | > 100 µM | 1.9 µM | > 100 µM | – | – | – | – | –
CC(C)=CCN1C(=O)C=C(C)OS1(=O)=O [Compound 50] | – | – | – | – | 0.24 µM | > 1000 µM | 0.33 µM | > 1000 µM | –
CC1=CC(=O)N(Cc2ccccc2)S(=O)(=O)O1 [Compound 51] | – | – | – | – | 0.27 µM | > 1000 µM | 2.7 µM | > 1000 µM | –
CC1=CC(=O)N(Cc2ccc(Cl)c(Cl)c2)S(=O)(=O)O1 [Compound 52] | – | – | – | – | 2 µM | > 1000 µM | 0.47 µM | > 1000 µM | –
CC1=CC(=O)N(Cc2cn(-c3ccccc3)nn2)S(=O)(=O)O1 [Compound 53] | – | – | – | – | > 1000 µM | > 1000 µM | > 1000 µM | > 1000 µM | –
CC1=CC(=O)N(Cc2cn(-c3ccc(Cl)cc3)nn2)S(=O)(=O)O1 [Compound 54] | – | – | – | – | > 1000 µM | > 1000 µM | > 1000 µM | > 1000 µM | –
CC1=CC(OCc2cn(-c3ccccc3)nn2)=NS(=O)(=O)O1 [Compound 55] | – | – | – | – | > 1000 µM | > 1000 µM | > 1000 µM | > 1000 µM | –
CC1=CC(OCc2cn(-c3ccc(C)cc3)nn2)=NS(=O)(=O)O1 [Compound 56] | – | – | – | – | > 1000 µM | > 1000 µM | > 1000 µM | > 1000 µM | –
CC1=CC(OCc2cn(-c3ccc(Cl)cc3)nn2)=NS(=O)(=O)O1 [Compound 57] | – | – | – | – | > 1000 µM | > 1000 µM | > 1000 µM | > 1000 µM | –
CC1=CC(OCc2cn(-c3ccc(Br)cc3)nn2)=NS(=O)(=O)O1 [Compound 58] | – | – | – | – | > 1000 µM | > 1000 µM | > 1000 µM | > 1000 µM | –
CC1=CC(OCc2cn(Cc3ccccc3)nn2)=NS(=O)(=O)O1 [Compound 60] | – | – | – | – | > 100 µM | > 100 µM | 1.1 µM | > 100 µM | –

The next lines start with results.

Ki (hCA XII; [1]) | Ki (hCA I; [1]) | Ki (hCA IX; [1]) | Ki (hCA II; [1]) | Ki (hCA XII; [2]) | Ki (hCA I; [2]) | Ki (hCA IX; [2]) | Ki (hCA II; [2]) | SMILES | also measured
> 1000 µM | > 1000 µM | > 1000 µM | > 1000 µM | – | – | – | – | O=C1c2ccccc2S(=O)(=O)N1Cc1cn(-c2ccccc2)nn1 [Compound 41] | Ki (hCA XII): > 1000 µM; Ki (hCA I): > 1000 µM; Ki (hCA IX): > 1000 µM; Ki (hCA II): > 1000 µM
> 1000 µM | > 1000 µM | 759 µM | 80.8 µM | – | – | – | – | O=C1c2ccccc2S(=O)(=O)N1Cc1cn(-c2ccc(Cl)cc2)nn1 [Compound 42] | –
> 1000 µM | > 1000 µM | 538 µM | 76.4 µM | – | – | – | – | O=C1c2ccccc2S(=O)(=O)N1Cc1cn(-c2ccc(Br)cc2)nn1 [Compound 43] | –
> 1000 µM | > 1000 µM | 670 µM | > 1000 µM | – | – | – | – | Cc1ccc(-n2cc(CN3C(=O)c4ccccc4S3(=O)=O)nn2)cc1 [Compound 44] | –
> 1000 µM | > 1000 µM | 666 µM | > 1000 µM | – | – | – | – | COc1ccc(-n2cc(CN3C(=O)c4ccccc4S3(=O)=O)nn2)cc1 [Compound 45] | –
– | > 100 µM | 20.9 µM | > 100 µM | – | – | – | – | O=C1c2ccccc2S(=O)(=O)N1Cc1cn(Cc2ccccc2)nn1 [Compound 46] | Ki (hCA XII): 7.4 µM; Ki (hCA IX): 20.9 µM and 7.4 µM
– | – | – | – | > 1000 µM | > 1000 µM | > 1000 µM | > 1000 µM | COc1ccc(-n2cc(COC3=NS(=O)(=O)OC(C)=C3)nn2)cc1 [Compound 59] | –
